Earlier results in patent US20240207235A1, “NANOEMULSION FORMULATION FOR TREATING DISBETES MELLITUS (DM)” (KING FAISAL UNIVERSITY, priority 2022, published 2024).

SMILES: CCc1ccc(CCOc2ccc(CC3SC(=O)NC3=O)cc2)nc1 (stereo not shown) [PGZ, Pioglitazone]
- solubility: low solubility
